Patent US10457688B2, “Monocyclic thieno, pyrido, and pyrrolo pyrimidine compounds and methods of use and manufacture of same” (Duquesne University of the Holy Spirit, priority 2015, dated 2019)
Like-named read-outs stand apart in the source and are kept apart here. Each block holds one compound with its values, some of them ahead of it.

What was measured:
[1] = tested on: RT16 CHO cells expressing human FRα; conditions: cited from earlier work
[2] = tested on: KB human tumor cells (RFC/FRα/PCFT); assay: growth inhibition, KB tumor cells; assay type: cell-based
Description: The experiments with the CHO sublines were extended to KB human nasopharengeal carcinoma cells which express highly elevated FRα, along with RFC and PCFT.

[3] = tested on: PC43-10 CHO cells expressing human RFC; assay: growth inhibition, CHO PC43-10 (human RFC); assay type: cell-based, Chinese hamster
[4] = tested on: RT16 CHO cells expressing human FRα; assay: growth inhibition, CHO RT16 (FRα); assay type: cell-based, Chinese hamster
[5] = tested on: D4 CHO cells expressing FRβ; assay: growth inhibition, CHO D4 (FRβ); assay type: cell-based, Chinese hamster
MDA-MB-435 cancer cells = assay: antiproliferative sulforhodamine B assay (SRB assay), MDA-MB-435; assay type: cell-based; conditions: Homo sapiens
[6] = tested on: cellular microtubules in A-10 cells; assay: cellular microtubule depolymerization, cell-based phenotypic assay; conditions: Rattus norvegicus
[7] = tested on: R2/PCFT4 CHO cells expressing human PCFT; assay: growth inhibition, CHO R2/PCFT4 (PCFT); assay type: cell-based, Chinese hamster; conditions: Section III Table 1
[8] = tested on: R2(VC) CHO cells (transporter-null); assay: growth inhibition, vector control R2(VC) CHO cells; assay type: cell-based, Chinese hamster; conditions: Cricetulus griseus, Section IV Table 1
[9] = Section IV Table 1, +FA, read-out: KB (+FA) IC50
[10] = Section IV Table 1, read-out: KB IC50 (RFC/FRα/PCFT)
[11] = Section IV Table 1, +FA, read-out: RT16 (+FA) IC50
[12] = Section IV Table 1, read-out: RT16 IC50 (FRα)
[13] = MDA-MB-435, read-out: IC50 ± SD (MDA-MB-435) Tumor cells
[14] = read-out: IC50 ± SD in MDA-435 Cells
[15] = A10, read-out: EC50 for Microtubule Depolymerization in A-10 Cells
[16] = A10, read-out: EC50 in A-10 cells (Loss of cellular microtubules)
[17] = A10, read-out: EC50 in A-10 cells (Tubulin polymerization inhibitory activity)
[18] = MDA-MB-435, Section VIII Table 1, read-out: IC50 + SD (MDA-MB-435) cancer cells
[19] = A10, Section VIII Table 1, read-out: EC50 in A-10 cells (Loss of cellular microtubules)
[20] = MDA-MB-435, Section VII Table 2, read-out: IC50 ± SD (MDA-MB-435) Tumor cells
[21] = Section VII Table 1, read-out: IC50 ± SD in MDA-435 Cells
[22] = A10, Section VII Table 1, read-out: EC50 for Microtubule Depolymerization in A-10 Cells
[23] = A10, Section VII Table 2, read-out: EC50 in A-10 cells (Tubulin polymerization inhibitory activity)
[24] = Homo sapiens, PC43-10, Section III Table 1

SMILES: Nc1nc2[nH]c(CCCc3ccc(C(=O)N[C@@H](CCC(=O)O)C(=O)O)cc3)cc2c(=O)[nH]1 [AGF17]
selectivity for FR transport over RFC [1]: 25 fold

SMILES: Nc1nc2[nH]c(CCOc3cccc(C(=O)N[C@@H](CCC(=O)O)C(=O)O)c3)cc2c(=O)[nH]1 [AGF220]
IC50 [2, 9]: > 1 µM | IC50 [2, 10]: 0.0131 µM | IC50 ([3]; Section IV Table 1): > 1 µM | IC50 [4, 11]: > 1 µM | IC50 [4, 12]: 0.0303 µM

SMILES: Nc1nc2[nH]c(CCNc3cccc(C(=O)N[C@@H](CCC(=O)O)C(=O)O)c3)cc2c(=O)[nH]1 [AGF256]
IC50 [2, 9]: > 1 µM | IC50 [2, 10]: 0.0148 µM | IC50 ([3]; Section IV Table 1): > 1 µM | IC50 [4, 11]: > 1 µM | IC50 [4, 12]: 0.0159 µM | IC50 ([5]; Section IV Table 1, +FA, read-out: D4 (+FA) IC50): > 1 µM | IC50 ([5]; Section IV Table 1, read-out: D4 IC50 (FRβ)): 0.00419 µM

SMILES: CSc1ccc(N(C)c2nc(C)nc3cc[nH]c23)cc1 [Compound 4]
IC50 (MDA-MB-435 cancer cells; MDA-MB-435, read-out: IC50 + SD (MDA-MB-435) cancer cells): 0.004 ± 0.0005 µM | IC50 (MDA-MB-435 cancer cells; [13]): 0.0044 ± 0.0002 µM | IC50 (MDA-MB-435 cancer cells; [14]): 0.0044 ± 0.0002 µM | EC50 [6, 15]: 0.042 µM | EC50 [6, 16]: 0.01 µM | EC50 [6, 17]: 0.042 µM | IC50 ([2]; Homo sapiens, read-out: KB IC50 (FRα/PCFT/RFC)): 0.00613 µM | IC50 ([4]; Cricetulus griseus, RT16, read-out: R16 IC50 (FRα)): 0.00172 µM | IC50 ([5]; Cricetulus griseus, CHO, read-out: D4 IC50 (FRβ)): 0.00611 µM

SMILES: COc1ccc(Nc2nc(C)nc3sc(C)c(C)c23)cc1 [Compound 7]
EC50 [6, 19]: > 10 µM

SMILES: CSc1ccc2c(c1)CCCN2c1ncnc2ccsc12 [Compound 8]
IC50 (MDA-MB-435 cancer cells; [20]): 0.0038 ± 0.0003 µM | IC50 (MDA-MB-435 cancer cells; [21]): 0.0038 ± 0.0003 µM | EC50 [6, 22]: 0.022 µM | EC50 [6, 23]: 0.022 µM

SMILES: CSc1ccc(N(C)c2nc(C)nc3sc(C)c(C)c23)cc1 [Compound 9]
IC50 (MDA-MB-435 cancer cells; [18]): 0.0348 ± 0.0037 µM | EC50 [6, 19]: 0.128 µM

SMILES: COc1ccc2c(c1)CCCN2c1nc(C)nc2sc(C)c(C)c12 [Compound 10]
EC50 [6, 19]: > 10 µM

SMILES: COc1ccc2c(c1)OCCN2c1nc(C)nc2sc(C)c(C)c12 [Compound 11]
EC50 [6, 19]: 1.2 µM

SMILES: COc1cccc2cc(N(C)c3ncnc4ccsc34)ccc12 [Compound 11]
IC50 (MDA-MB-435 cancer cells; [13]): 0.0157 ± 0.0022 µM | IC50 (MDA-MB-435 cancer cells; [14]): 0.0157 ± 0.0022 µM | EC50 [6, 22]: 0.061 µM

SMILES: CN(Cc1cnc2nc(N)nc(N)c2n1)c1ccc(C(=O)N[C@@H](CCC(=O)O)C(=O)O)cc1 [MTX, methotrexate, reference compound]
IC50 [8]: > 1 µM

SMILES: Nc1nc2[nH]cc(CCc3ccc(C(=O)N[C@@H](CCC(=O)O)C(=O)O)cc3)c2c(=O)[nH]1 [PMX, pemetrexed, reference compound]
IC50 ([2]; Homo sapiens, Section III Table 1, read-out: KB IC50 (RFC/FRα/PCFT)): 0.00994 µM | IC50 [3, 24]: 0.0306 µM

SMILES: Cc1nc2ccc(CN(C)c3ccc(C(=O)N[C@@H](CCC(=O)O)C(=O)O)s3)cc2c(=O)[nH]1 [RTX, raltitrexed]
IC50 [8]: > 1 µM

SMILES: COc1ccc(N(C)c2nc(C)nc3ccsc23)cc1 [compound 2]
IC50 (MDA-MB-435 cancer cells; [13]): 0.007 ± 0.0027 µM | IC50 (MDA-MB-435 cancer cells; [14]): 0.007 ± 0.0027 µM | EC50 [6, 15]: 0.027 µM | EC50 [6, 17]: 0.027 µM

SMILES: CSc1ccc(Nc2nc(C)nc3sccc23)cc1 [compound 2]
EC50 [6, 16]: > 10 µM

SMILES: CSc1ccc(Nc2nc(C)nc3cc[nH]c23)cc1 [compound 3]
IC50 (MDA-MB-435 cancer cells; [20]): 2.1 ± 0.07 µM | IC50 (MDA-MB-435 cancer cells; [21]): 2.1 ± 0.07 µM | EC50 [6, 22]: 25 µM | EC50 [6, 23]: 25 µM

The next lines start with results.

IC50 (MDA-MB-435 cancer cells; [18]): 0.0038 µM | EC50 [6, 19]: 0.0025 µM
SMILES: COc1cccc2cc(N(C)c3nc(C)nc4sccc34)ccc12 [Compound 6]

IC50 (MDA-MB-435 cancer cells; [20]): 0.0282 ± 0.0055 µM | IC50 (MDA-MB-435 cancer cells; [21]): 0.0282 ± 0.0055 µM | EC50 [6, 22]: 0.707 µM | EC50 [6, 23]: 0.707 µM
SMILES: CSc1ccc(N(C)c2ncnc3ccsc23)cc1 [Compound 6]
IC50 [3, 24]: 0.207 µM | IC50 [7]: 0.00823 µM

IC50 (MDA-MB-435 cancer cells; [20]): 0.0034 ± 0.0009 µM | IC50 (MDA-MB-435 cancer cells; [21]): 0.0034 ± 0.0009 µM | EC50 [6, 22]: 0.008 µM | EC50 [6, 23]: 0.008 µM | IC50 ([2]; Homo sapiens, Section VI Table 1, read-out: KB IC50 (FRα/PCFT/RFC)): 0.0389 µM
SMILES: COc1ccc2c(c1)CCCN2c1nc(C)nc2ccsc12 [Compound 7]

IC50 (MDA-MB-435 cancer cells; [18]): 0.0107 ± 0.001 µM | EC50 [6, 19]: 0.018 µM
SMILES: COc1ccc(N(C)c2nc(C)nc3sc(C)c(C)c23)cc1 [Compound 8]

IC50 (MDA-MB-435 cancer cells; [21]): 0.109 µM | EC50 [6, 22]: 0.237 µM | EC50 [6, 23]: 0.237 µM
SMILES: COc1ccc2c(c1)OCCN2c1nc(C)nc2ccsc12 [Compound 9]

IC50 (MDA-MB-435 cancer cells; [20]): 0.0017 ± 0.0002 µM | IC50 (MDA-MB-435 cancer cells; [21]): 0.0017 ± 0.0002 µM | EC50 [6, 22]: 0.003 µM | EC50 [6, 23]: 0.003 µM
SMILES: COc1cccc2cc(N(C)c3nc(C)nc4ccsc34)ccc12 [Compound 10]

IC50 (MDA-MB-435 cancer cells; [20]): 0.0966 ± 0.0053 µM | IC50 (MDA-MB-435 cancer cells; [21]): 0.0966 µM
SMILES: COc1ccc(N(C)c2nc(C)nc3cc[nH]c23)cc1 [compound 1]

IC50 (MDA-MB-435 cancer cells; [18]): 0.0076 µM | EC50 [6, 19]: 0.0154 µM
SMILES: COc1ccc(N(C)c2nc(C)nc3sccc23)cc1 [compound 3]
